In the RepoRT retention time repository:

Test: RP, Waters ACQUITY UPLC HSS T3, 100 × 2.1 mm, 1.8 µm, 0.3 mL/min, estimated dead time 0.73 min; A: water + 0.1% formic acid, pH 3; B: methanol + 0.1% formic acid, pH 3; gradient (min/%B) 0/1 1/15 4/35 7/95 9/95 10/1 14/95
Details: stereoisomer not certain

| SMILES | LC retention time [min] |
| --- | --- |
| O=[N+]([O-])c1ccccc1O [2-nitrophenol] | 8.45 |
| O=C1CC(C(=O)O)NC(=O)N1 [L-dihydroorotic acid] | 1.07 |
| CC12CCC3c4ccc(O)cc4CCC3C1CCC2O (configuration not stated) [estradiol] | 19.7 |
| CC(=O)C1CCC2C3CCC4=CC(=O)CCC4(C)C3CCC12C (configuration not stated) [progesterone] | 10.1 |
| Cc1cc2nc3c(=O)[nH]c(=O)nc-3n(CC(O)C(O)C(O)CO)c2cc1C (configuration not stated) [riboflavin] | 7.22 |
| CC(CCC(=O)NCC(=O)O)C1CCC2C3C(O)CC4CC(O)CCC4(C)C3CC(O)C12C (configuration not stated) [sodium glycocholate hydrate] | 11 |
| O=c1ccn(C2OC(CO)C(O)C2O)c(=O)[nH]1 (configuration not stated) [uridine] | 2.2 |

The remaining lines, values ahead:

| LC retention time [min] | SMILES |
| --- | --- |
| 8.41 | O=C(O)CC(O)(CC(=O)O)C(=O)O [citric acid monohydrate] |
| 2.53 | CC(C)CC(N)C(=O)O (configuration not stated) [leucine] |
| 1.21 | CSCCC(N)C(=O)O (configuration not stated) [methionine] |
| 4.45 | NC(Cc1ccccc1)C(=O)O (configuration not stated) [phenylalanine] |
| 5.45 | NC(Cc1c[nH]c2ccccc12)C(=O)O (configuration not stated) [tryptophan] |
